Common to all, as to assay: IA-DTB cysteine engagement, GluC + trypsin digest
Format in all cases: binding
Holding throughout (details): 22Rv1 cells

The target of one assay is T1, SF3B1 795 (Homo sapiens, UniProt O75533).
T1 construct: endogenous in cells; host or cells: 22Rv1
As for the experimental part: (§1) Sample preparation: Cells (adherent: 15 cm dishes, suspension: 2 million cells/mL) were treated with electrophilic probes in situ for indicated times and concentrations, washed with ice-cold PBS, and flash frozen in liquid nitrogen. Cell pellets were lysed by sonication (8 pulses, 40% power) in 500 μL ice-cold PBS supplemented with cOmplete protease inhibitors (1 tablet/10 mL of PBS). Whole cell lysates protein content was measured using a standard DC protein assay (Bio-Rad) and 500 μL (2 mg/mL protein content) were treated with 5 μL of 10 mM 1A-DTB (in DMSO) for 1 h at ambient temperature with occasional vortexing. Samples were methanol-chloroform precipitated with the addition of 500 μL ice-cold MeOH and 200 μL CHCl3, vortexed, and centrifuged (10 min, 10,000 g). Without disrupting the protein disk, both top and bottom layers were aspirated and the protein disk was washed with 1 mL ice-cold MeOH and centrifuged (10 min, 10,000 g). The pellets were allowed to air dry, and then re-suspended in 90 μL buffer (9 M urea, 10 mM DTT, 50 mM TEAB pH 8.5). Samples were reduced by heating at 65 C for 20 minutes and water bath sonicated as needed to resuspend the protein pellets, followed by alkylation via addition of 10 μL (500 mM) iodoacetamide and incubated at 37 C for 30 min with shaking. Samples were briefly centrifuged, and probe sonicated once more to ensure complete resuspension, and then diluted with 300 μL buffer (50 mM TEAB pH 8.5) to reach final concentration of 2 M urea. […] Digested samples were then diluted with 300 μL wash buffer (50 mM TEAB pH 8.5, 150 mM NaCl, 0.2% NP-40) containing streptavidin-agarose beads (50 μL of 50% slurry in wash buffer) and were rotated at room temperature for 2 hours. Enriched samples were pelleted by centrifugation (2000 g, 2 min) and transferred to BioSpin columns and washed (3×1 mL wash buffer, 3×1 mL PBS, 3×1 mL water). Enriched peptides were eluted by 300 μL 50% acetonitrile with 0.1% formic acid and eluate was evaporated to dryness via speedvac. IA-DTB labeled and enriched peptides were resuspended in 100 μL EPPS buffer (200 mM, pH 8.0) with 30% acetonitrile, vortexed, and water bath sonicated. Samples were TMT labeled with 3 μL of corresponding TMT tag (5 mg tag resuspended in 256 μL acetonitrile), vortexed, and incubated at room temperature for 1 hour. TMT labeling was quenched with the addition of hydroxylamine (5 μL 5% solution in H2O) and incubated for 15 minutes at room temperature. Samples were then acidified with 5 μL formic acid, combined and dried using a SpeedVac. Samples were desalted via Sep-Pak and then high pH fractionated.
(§2) Data processing: Cysteine engagement ratios (probe vs DMSO) were calculated for each peptide-spectra match by dividing each TMT reporter ion intensity by the average intensity for the channels corresponding to DMSO treatment. Peptide-spectra matches were then grouped based on protein ID and residue number (e.g., PSME1 C22), […] ion intensities for the DMSO channels <10,000, coefficient of variation for DMSO channels >0.5, […] TMT reporter ion intensities were normalized to the median summed signal intensity across channels.
(§3) Samples were analyzed by liquid chromatography tandem mass-spectrometry using an Orbitrap Fusion mass spectrometer (Thermo Scientific) coupled to an UltiMate 3000 Series Rapid Separation LC system and autosampler (Thermo Scientific Dionex). The peptides were eluted onto a capillary column (75 μm inner diameter fused silica, packed with C18 (Waters, Acquity BEH C18, 1.7 μm, 25 cm)) or an EASY-Spray HPLC column (Thermo ES902, ES903) using an Acclaim PepMap 100 (Thermo 164535) loading column, and separated at a flow rate of 0.25 μL/min. Data was acquired using an MS3-based TMT method on Orbitrap Fusion or Orbitrap Eclipse Tribrid Mass Spectrometers. […]

The target of the next assay is T2, PSME1 106 (Homo sapiens, UniProt Q06323).
T2 construct: stereoselectively engaged C22 of endogenous PSME1 in 22Rv1 cells; endogenous in cells; host or cells: 22Rv1
T2 sequence (Q06323 whole entry): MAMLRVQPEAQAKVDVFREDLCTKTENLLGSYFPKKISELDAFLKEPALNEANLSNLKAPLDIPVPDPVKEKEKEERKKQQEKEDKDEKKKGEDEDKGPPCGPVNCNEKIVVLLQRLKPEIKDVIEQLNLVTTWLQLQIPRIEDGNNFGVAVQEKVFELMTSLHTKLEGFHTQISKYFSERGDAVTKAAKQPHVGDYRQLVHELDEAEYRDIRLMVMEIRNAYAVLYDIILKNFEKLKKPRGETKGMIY
As for the experimental part: as §1, §2, §3

The target of another assay is T3, SF3B1 1123 (Homo sapiens, UniProt O75533+Q7RTV0).
T3 construct: Cysteine engagement data from 22Rv1 cells treated; endogenous in cells; host or cells: 22Rv1
T3 sequence (O75533 whole entry): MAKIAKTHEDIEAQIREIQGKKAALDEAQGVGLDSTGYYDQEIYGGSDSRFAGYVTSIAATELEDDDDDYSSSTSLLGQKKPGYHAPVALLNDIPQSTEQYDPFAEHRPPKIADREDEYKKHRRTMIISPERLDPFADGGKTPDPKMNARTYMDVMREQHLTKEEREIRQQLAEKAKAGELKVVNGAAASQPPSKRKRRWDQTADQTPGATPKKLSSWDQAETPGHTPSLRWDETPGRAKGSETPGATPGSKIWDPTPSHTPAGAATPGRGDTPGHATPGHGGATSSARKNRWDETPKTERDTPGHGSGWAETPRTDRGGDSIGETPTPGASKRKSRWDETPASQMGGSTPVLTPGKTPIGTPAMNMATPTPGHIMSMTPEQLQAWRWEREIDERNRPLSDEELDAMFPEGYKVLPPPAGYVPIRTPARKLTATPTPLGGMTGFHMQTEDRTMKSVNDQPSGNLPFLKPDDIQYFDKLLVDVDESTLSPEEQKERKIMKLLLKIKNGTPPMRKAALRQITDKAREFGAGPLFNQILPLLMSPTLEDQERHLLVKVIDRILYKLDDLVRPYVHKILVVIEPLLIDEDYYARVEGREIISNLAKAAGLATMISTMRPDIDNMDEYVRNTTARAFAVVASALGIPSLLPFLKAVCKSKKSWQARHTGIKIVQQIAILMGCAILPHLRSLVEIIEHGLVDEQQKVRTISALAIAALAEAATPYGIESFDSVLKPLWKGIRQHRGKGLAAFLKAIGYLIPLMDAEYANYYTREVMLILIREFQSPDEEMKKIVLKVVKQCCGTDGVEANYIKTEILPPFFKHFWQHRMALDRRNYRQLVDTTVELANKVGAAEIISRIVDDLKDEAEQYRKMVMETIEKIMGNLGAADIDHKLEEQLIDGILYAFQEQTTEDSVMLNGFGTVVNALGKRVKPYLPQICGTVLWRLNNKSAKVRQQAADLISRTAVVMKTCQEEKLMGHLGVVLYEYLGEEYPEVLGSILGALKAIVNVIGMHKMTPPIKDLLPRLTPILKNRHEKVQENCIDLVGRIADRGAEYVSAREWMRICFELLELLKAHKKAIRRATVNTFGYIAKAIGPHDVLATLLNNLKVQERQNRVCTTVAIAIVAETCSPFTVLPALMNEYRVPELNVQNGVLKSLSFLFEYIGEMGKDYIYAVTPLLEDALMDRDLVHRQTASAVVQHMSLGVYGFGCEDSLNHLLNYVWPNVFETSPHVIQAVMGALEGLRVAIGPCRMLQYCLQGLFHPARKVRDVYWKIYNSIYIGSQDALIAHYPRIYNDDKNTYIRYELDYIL
T3 sequence (Q7RTV0 whole entry): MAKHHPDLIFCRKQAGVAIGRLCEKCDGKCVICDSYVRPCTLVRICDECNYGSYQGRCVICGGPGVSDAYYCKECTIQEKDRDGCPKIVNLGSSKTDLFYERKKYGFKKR
T3 sequence (Q15393 whole entry partner): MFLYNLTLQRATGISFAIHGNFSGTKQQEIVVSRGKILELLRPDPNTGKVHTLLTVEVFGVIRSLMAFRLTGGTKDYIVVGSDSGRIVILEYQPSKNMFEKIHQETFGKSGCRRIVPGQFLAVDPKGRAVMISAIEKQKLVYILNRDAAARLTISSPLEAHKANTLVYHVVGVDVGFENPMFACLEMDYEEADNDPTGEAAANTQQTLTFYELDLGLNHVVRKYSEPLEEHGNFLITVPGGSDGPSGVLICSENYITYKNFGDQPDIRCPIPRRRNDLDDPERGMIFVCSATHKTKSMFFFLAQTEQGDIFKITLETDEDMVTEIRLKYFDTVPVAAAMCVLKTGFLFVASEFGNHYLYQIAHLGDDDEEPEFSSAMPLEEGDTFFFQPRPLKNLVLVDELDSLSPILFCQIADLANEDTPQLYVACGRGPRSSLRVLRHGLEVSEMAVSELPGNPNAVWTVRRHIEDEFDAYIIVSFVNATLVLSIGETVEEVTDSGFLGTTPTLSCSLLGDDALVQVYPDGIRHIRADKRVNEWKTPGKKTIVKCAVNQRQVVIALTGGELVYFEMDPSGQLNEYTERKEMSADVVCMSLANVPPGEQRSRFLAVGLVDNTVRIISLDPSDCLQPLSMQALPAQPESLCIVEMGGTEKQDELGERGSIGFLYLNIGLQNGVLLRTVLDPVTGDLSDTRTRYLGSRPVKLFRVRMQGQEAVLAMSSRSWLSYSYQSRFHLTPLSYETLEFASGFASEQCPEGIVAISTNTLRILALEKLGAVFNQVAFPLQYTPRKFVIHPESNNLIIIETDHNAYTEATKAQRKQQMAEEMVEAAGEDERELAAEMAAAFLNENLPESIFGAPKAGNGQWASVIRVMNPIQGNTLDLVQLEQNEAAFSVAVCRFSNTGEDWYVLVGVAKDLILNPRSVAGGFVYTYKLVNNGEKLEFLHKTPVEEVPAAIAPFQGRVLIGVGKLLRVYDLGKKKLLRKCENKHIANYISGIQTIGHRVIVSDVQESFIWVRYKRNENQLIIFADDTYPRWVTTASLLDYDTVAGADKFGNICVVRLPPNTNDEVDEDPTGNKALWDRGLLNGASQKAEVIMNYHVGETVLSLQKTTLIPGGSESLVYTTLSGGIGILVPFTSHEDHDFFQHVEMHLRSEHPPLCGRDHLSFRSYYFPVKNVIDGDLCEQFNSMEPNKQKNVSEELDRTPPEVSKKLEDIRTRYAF
T3 sequence (Q9BWJ5 whole entry partner): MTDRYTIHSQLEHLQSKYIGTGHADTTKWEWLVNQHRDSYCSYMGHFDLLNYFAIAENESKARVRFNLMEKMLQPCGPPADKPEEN
As to the method:
as §1, §2, §3

The target in a further assay is T4, SF3B1 965 (Homo sapiens, UniProt O75533+Q7RTV0).
T4 construct: Cysteine engagement data from 22Rv1 cells treated; endogenous in cells; host or cells: 22Rv1
T4 sequence (O75533 whole entry): as the sequence (O75533 whole entry) above
T4 sequence (Q7RTV0 whole entry): as the sequence (Q7RTV0 whole entry) above
T4 sequence (Q15393 whole entry partner): as the sequence (Q15393 whole entry partner) above
T4 sequence (Q9BWJ5 whole entry partner): as the sequence (Q9BWJ5 whole entry partner) above
As to the method: as §1, §2, §3

A further assay has as its target T5, SF3B1 796 (Homo sapiens, UniProt O75533).
T5 construct: endogenous in cells; host or cells: 22Rv1
As for the experimental part:
as §1, §2, §3

The target of the next assay is T6, SF3B1 1035 (Homo sapiens, UniProt O75533+Q7RTV0).
T6 construct: Cysteine engagement data from 22Rv1 cells treated; endogenous in cells; host or cells: 22Rv1
T6 sequence (O75533 whole entry): as the sequence (O75533 whole entry) above
T6 sequence (Q7RTV0 whole entry): as the sequence (Q7RTV0 whole entry) above
T6 sequence (Q15393 whole entry partner): as the sequence (Q15393 whole entry partner) above
T6 sequence (Q9BWJ5 whole entry partner): as the sequence (Q9BWJ5 whole entry partner) above
As for the experimental part: as §1, §2, §3

In the next assay the target is T7, SF3B1 1244 (Homo sapiens, UniProt O75533+Q7RTV0).
T7 construct: Cysteine engagement data from 22Rv1 cells treated; endogenous in cells; host or cells: 22Rv1
T7 sequence (O75533 whole entry): as the sequence (O75533 whole entry) above
T7 sequence (Q7RTV0 whole entry): as the sequence (Q7RTV0 whole entry) above
T7 sequence (Q15393 whole entry partner): as the sequence (Q15393 whole entry partner) above
T7 sequence (Q9BWJ5 whole entry partner): as the sequence (Q9BWJ5 whole entry partner) above
As for the experimental part:
as §1, §2, §3

In another assay the target is T8, SF3B1 933 (Homo sapiens, UniProt O75533+Q7RTV0).
T8 construct: Cysteine engagement data from 22Rv1 cells treated; endogenous in cells; host or cells: 22Rv1
T8 sequence (O75533 whole entry): as the sequence (O75533 whole entry) above
T8 sequence (Q7RTV0 whole entry): as the sequence (Q7RTV0 whole entry) above
T8 sequence (Q15393 whole entry partner): as the sequence (Q15393 whole entry partner) above
T8 sequence (Q9BWJ5 whole entry partner): as the sequence (Q9BWJ5 whole entry partner) above
As to the method:
as §1, §2, §3

A further assay deals with T9, PSME1 101 (Homo sapiens, UniProt Q06323).
T9 construct: stereoselectively engaged C22 of endogenous PSME1 in 22Rv1 cells; endogenous in cells; host or cells: 22Rv1
T9 sequence (Q06323 whole entry): as the sequence (Q06323 whole entry) above
As to the method: as §1, §2, §3

T5 sequence (O75533 whole entry): as the sequence (O75533 whole entry) above
T1 sequence (O75533 whole entry): as above

Take `C=CC(=O)N1[C@H](c2ccc3c(c2)OCO3)c2[nH]c3ccccc3c2C[C@H]1C(=O)N1CCOCC1` [WX-02-23, 1-((1R,3S)-1-(benzo[d][1,3]dioxol-S-yl)-3-(morpholine-4-carbonyl)-1,3,4,9-tetrahydro-2H-pyrido [3,4-b]indol-2-yl)prop-2-en-1-one]: the “percent engagement relative to DMSO, SF3B1 795” value on SF3B1 795 (5 uM) was −4.58%; at SF3B1 795 (20 uM), −5.905%. In addition, the “percent engagement relative to DMSO, PSME1 106” value on PSME1 106 (5 uM) is −4.44%; at PSME1 106 (20 uM), −17.66%. For the same compound, the “percent engagement relative to DMSO, SF3B1 1123” value on SF3B1 1123 (5 uM) stood at 5.965%; on SF3B1 1123 (20 uM) it was 21.005%. For the same compound, the “percent engagement relative to DMSO, SF3B1 965” value at SF3B1 965 (5 uM) is −15.75%; at SF3B1 965 (20 uM), −8.665%. The “percent engagement relative to DMSO, SF3B1 796” value at SF3B1 796 (5 uM) was −6.42%; at SF3B1 796 (20 uM) it was −5.075%. Also, the “percent engagement relative to DMSO, SF3B1 1035” value on SF3B1 1035 (5 uM) is −9.265%; on SF3B1 1035 (20 uM), −6.03%. The “percent engagement relative to DMSO, SF3B1 1244” value is listed as −11.92% at SF3B1 1244 (5 uM) and −12.54% on SF3B1 1244 (20 uM). The “percent engagement relative to DMSO, SF3B1 933” value on SF3B1 933 (5 uM) was −7.02%; on SF3B1 933 (20 uM), −4.95%. Also, the “percent engagement relative to DMSO, PSME1 101” value on PSME1 101 (5 uM) is recorded as −4.575%; on PSME1 101 (20 uM), −14.73%.

`C=CC(=O)N1[C@@H](c2ccc3c(c2)OCO3)c2[nH]c3ccccc3c2C[C@@H]1C(=O)N1CCOCC1` [WX-02-43, 1-((1S,3R)-1-(benzo[d][1,3]dioxol-5-yl)-3-(morpholine-4-carbonyl)-1,3,4,9-tetrahydro-2H-pyrido [3,4-b]indol-2-yl)prop-2-en-1-one]: the “percent engagement relative to DMSO, SF3B1 795” value on SF3B1 795 (5 uM) was found to be 5.715%; on SF3B1 795 (20 uM), 3.145%. Moreover, the “percent engagement relative to DMSO, PSME1 106” value at PSME1 106 (5 uM) was −7.69%; on PSME1 106 (20 uM) it was −20.355%. The “percent engagement relative to DMSO, SF3B1 1123” value was 1.425% at SF3B1 1123 (5 uM) and 21.84% on SF3B1 1123 (20 uM). The “percent engagement relative to DMSO, SF3B1 965” value was determined as 1.985% on SF3B1 965 (5 uM) and 13.895% on SF3B1 965 (20 uM). Besides, the “percent engagement relative to DMSO, SF3B1 796” value on SF3B1 796 (5 uM) came out at 6.755%; on SF3B1 796 (20 uM), 7.34%. The “percent engagement relative to DMSO, SF3B1 1035” value at SF3B1 1035 (5 uM) turned out to be 1.53%; on SF3B1 1035 (20 uM), 8.13%. The “percent engagement relative to DMSO, SF3B1 1244” value was −1.065% on SF3B1 1244 (5 uM) and −1.615% on SF3B1 1244 (20 uM). Moreover, the “percent engagement relative to DMSO, SF3B1 933” value on SF3B1 933 (5 uM) was 6.345%; on SF3B1 933 (20 uM), 2.595%. For the same compound, the entries for the “percent engagement relative to DMSO, PSME1 101” value on PSME1 101 (5 uM) and at PSME1 101 (20 uM) were −9.325% and −5.635%, respectively.

(Values after patent US20250034216A1, “STEREOSELECTIVE COVALENT LIGANDS FOR ONCOGENIC AND IMMUNOLOGICAL PROTEINS” (The Scripps Research Institute, priority 2021, published 2025).)
